{
  "source": "patent US10266549B2",
  "about": "“ULK1 inhibitors and methods using same” (SALK INSTITUTE FOR BIOLOGICAL STUDIES, priority 2014, dated 2019)",
  "key": {"ULK1": {"system": "ULK1", "experiment": "phosphorylation of ULK1 substrates (Vps34 Ser249, Beclin Ser15) in HEK293T cells co-expressing wild-type ULK1", "assay_type": "cell-based, human", "protocol": "At 24-hr post-transfection, cells were treated with a panel of putative ULK1 competitive inhibitors in a dose-response manner (1, 10, 50 μM). Cellular lysates were isolated after 1 hr of treatment and immunoblotted with the indicated antibodies. Representative results for compound 14 are shown.\nFIG. 7C: HEK293T cells were transfected with WT or KI ULK1 and WT Vps34 (left) or WT Flag-tagged Beclin1 (WT Beclin1; right). At 24-hr post-transfection, cells were treated with compound 14 (10 μM) or DMSO. Cellular lysates were isolated after 1 hr of treatment and immunoblotted with the indicated antibodies.\nFor transient expression in HEK293T cells were transfected with 2 ug each DNA plasmid per 6 cm dish using Lipofectamine 2000 (Invitrogen) following the manufacturer's protocol. Cells were harvested 24 hours after transfection and rinsed once with ice-cold PBS and lysed in boiling SDS lysis buffer (10 mM Tris pH7.5, 100 mM NaCl, 1% SDS). After trituration, lysates were equilibrated for protein levels using the BCA method (Pierce) and resolved on 8 to 15% SDS-PAGE Phos-Tag™ gels according to the manufacturer's instructions. Briefly, Phos-Tag™ AAL-107 (HARD #304-93521) was added to SDS-PAGE acryamide mixture at a final concentration of 50 μM along with MnCl2 at a final concentration of 100 μM. […]"}, "A549 lung cancer cells": {"system": "A549 lung cancer cells", "experiment": "Cyto-ID autophagy detection in A549 cells", "assay_type": "cell-based", "settings": "A549, 5 μM for 2 hr then 4 μM AZD8055 for 24 hr", "protocol": "FIG. 9E is an immunoflourescence imaging of A549 cells treated in the presence or absence of 5 μM compound 14 for 2 hr followed by 4 μM of the mTOR catalytic inhibitor AZD8055 for 24 hr. Autophagic vacuoles were detected using the Cyto-ID autophagy detection kit and are visualized in green, while cell nuclei were counterstained by DAPI and are visualized in blue.\nTo test the ability of compound 14 to block autophagy and cell survival, initial studies were performed in A549 lung cancer cells, which are highly sensitive to mTOR inhibition. […] Next, we genetically assessed the requirement for ULK1 versus other kinases inhibited by compound 14 to induce autophagy after pharmacological mTOR inhibition. A robust high-throughput microscopy method for quantifying GFP-LC3 puncta was established using a PC3 prostate-cancer cell line stably expressing a GFP-LC3 construct. Using this assay, we performed a focused RNAi analysis of the top 20 kinases identified in the DiscovRx screen as best binding to compound 14. […] Strikingly, of the 18 kinases tested, only one kinase siRNA, ULK1, nearly fully abolished the LC3 puncta induced by the mTOR inhibitors (FIG. 9D)."}, "WT ULK1": {"molecular_target": "WT ULK1 (Homo sapiens (Human), UniProt O75385)", "sequence (O75385 whole entry)": "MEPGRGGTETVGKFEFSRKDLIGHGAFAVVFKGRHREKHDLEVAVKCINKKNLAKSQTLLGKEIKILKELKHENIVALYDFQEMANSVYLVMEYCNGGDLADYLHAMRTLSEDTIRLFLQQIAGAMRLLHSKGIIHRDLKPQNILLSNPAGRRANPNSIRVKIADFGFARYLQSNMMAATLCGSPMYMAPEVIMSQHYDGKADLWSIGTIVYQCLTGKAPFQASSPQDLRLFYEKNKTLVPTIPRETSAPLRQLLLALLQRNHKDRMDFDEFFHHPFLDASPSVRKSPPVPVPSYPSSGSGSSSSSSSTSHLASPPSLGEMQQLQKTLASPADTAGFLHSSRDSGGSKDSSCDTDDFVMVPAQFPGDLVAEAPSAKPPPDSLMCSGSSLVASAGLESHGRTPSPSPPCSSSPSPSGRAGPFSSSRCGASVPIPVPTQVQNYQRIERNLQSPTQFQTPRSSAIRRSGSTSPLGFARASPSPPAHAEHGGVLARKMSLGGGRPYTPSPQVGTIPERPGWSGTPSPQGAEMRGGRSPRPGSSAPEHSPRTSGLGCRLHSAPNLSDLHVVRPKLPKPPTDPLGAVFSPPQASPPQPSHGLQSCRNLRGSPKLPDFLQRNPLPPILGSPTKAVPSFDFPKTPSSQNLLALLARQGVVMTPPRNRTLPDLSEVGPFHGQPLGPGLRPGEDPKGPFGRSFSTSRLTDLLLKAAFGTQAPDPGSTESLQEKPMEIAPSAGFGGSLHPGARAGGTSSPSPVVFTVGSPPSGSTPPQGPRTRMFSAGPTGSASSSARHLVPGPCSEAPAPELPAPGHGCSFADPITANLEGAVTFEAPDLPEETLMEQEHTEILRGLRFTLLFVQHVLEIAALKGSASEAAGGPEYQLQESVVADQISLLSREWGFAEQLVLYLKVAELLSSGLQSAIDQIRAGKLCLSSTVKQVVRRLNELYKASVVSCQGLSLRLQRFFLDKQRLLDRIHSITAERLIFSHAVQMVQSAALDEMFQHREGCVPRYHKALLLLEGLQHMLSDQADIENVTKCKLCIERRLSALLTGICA", "experiment": "in vitro kinase assay, WT ULK1, MBP substrate, radiolabeled ATP", "assay_type": "biochemical", "settings": "10-μM MBP, 30-μM γ-32P-ATP; triplicate, ten-dose, 3-fold serial dilution from 1 μM", "protocol": "WT ULK1 (left) and WT ULK2 (right) were assayed using 10-μM MBP in the presence of 30-μM radiolabeled γ-^32P-ATP.\nTo further examine how ULK1 regulates autophagy, we sought to identify small molecule ATP competitive kinase inhibitors of ULK1. Screening a library of chemical compounds for inhibitors of ULK1 kinase activity in vitro, we identified a lead compound that was further elaborated through a medicinal chemistry effort to produce compound 14. […] To further characterize the ability of compound 14 and related derivatives to inhibit ULK1 in cells, we tested the ability of these compounds to inhibit the phosphorylation of Vps34 Ser249 when epitope-tagged Vps34 was co-expressed in HEK293T cells with a wild-type ULK1 cDNA. Screening 40 compounds, we found compound 14 inhibited P-Vps34 on overexpressed Vps34 when used at ˜5 μM (FIG. 7B). We next examined the sensitivity of phosphorylation of Vps34 Serine 249 versus Beclin Serine 15 to two structurally distinct ULK1 inhibitors, when cDNAs bearing each were introduced into HEK293T cells. […] (FIG. 11A)."}, "MEFs": {"system": "MEFs", "experiment": "AnnexinV apoptosis analysis in nutrient-deprived MEFs", "assay_type": "cell-based, mouse", "protocol": "A549 cells (ATCC #CCL185) and MEFs were seeded at a concentration of 2.5×10^5 cells/mL (i.e., 750,000 cells per 6 cm dish), grown overnight (18 hrs) and treated as indicted in the figure legends. Unless otherwise indicated, “starvation” is EBSS and “control” is DMEM with full serum for indicated timepoints. Samples for western blot were washed once in 1× ice cold PBS and lysed in boiling SDS lysis buffer (10 mM Tris […], 100 mM NaCl, 1% SDS). After trituration, lysates were equilibrated for protein levels using the BCA method (Pierce) and resolved on 8 to 15% SDS-PAGE gels, depending on the size of the protein. PVDF membranes were probed with indicated antibodies overnight according to the manufacturers instructions.\nFor flow cytometry analysis, cells were collected at the appropriate time point, washed once in PBS, trypsinized and pelleted. For Annexin V staining, cells were washed in 1× Annexin V buffer and treated as described by the Annexin V staining protocol (BD Pharmingen, San Diego, Calif.). […] Stained cells were analyzed using a FACScan flow cytometer (Becton Dickinson, San Jose, Calif.). Flow cytometry data was analyzed using FlowJo 8.6 software (Tree Star Inc., Ashland, Oreg.). […]"}},
  "data": [
    {"smiles": "CNC(=O)c1ccccc1Nc1nc(Nc2cc(OC)c(OC)c(OC)c2)ncc1Br", "note": "[compound 14, 2-(5-bromo-2-(3,4,5-trimethoxyphenylamino)pyrimidin-4-ylamino)-N-methylbenzamide]", "values": [
      {"measurement": "inhibition of Beclin Ser15 and Vps34 Ser249 phosphorylation", "setting": "ULK1; 10 μM, 1 hr", "value": "inhibited Beclin Ser15 and Vps34 Ser249 to comparable extents"},
      {"measurement": "concentration inhibiting P-Vps34 on overexpressed Vps34", "setting": "ULK1; WT ULK1 + Flag-Vps34, 1 hr treatment", "value": "~5", "unit": "µM"},
      {"measurement": "AZD8055-induced autophagy (Cyto-ID autophagy dye accumulation)", "setting": "A549 lung cancer cells", "value": "strongly suppressed"},
      {"measurement": "IC50", "setting": "WT ULK1", "value": 0.107, "unit": "µM"},
      {"measurement": "AnnexinV positive cells", "setting": "MEFs; MEFs, 24 h after amino-acid deprivation", "value": 50, "unit": "%"},
      {"measurement": "cell death", "setting": "MEFs; glucose-deprived MEFs", "value": "promoted cell death"}
    ]}
  ]
}
